The test system of series [1] is pathogen of bacterial leaf streak (Xanthomonas oryzaes pv. Oryzicola). Type of series: cell-based. The note with it: for Inhibition rate of bacterial growth (%): immersed 24 h, growth observed after 3 d.
The subject of series [2] is rice seeds. The note with it: seed soaking 24 h, tested after 6 d.

SMILES strings stand for the structures. Read-outs that look alike come from different tables or passages of the source.

Turning to `CCCCCCCCCCCC[N+](C)(C)Cc1ccccc1.[Br-]` [Dodecyl dimethyl benzyl ammonium bromide, dodecyl dimethyl benzyl ammonium bromide], the “inhibitory effect on the pathogen of bacterial leaf streak of rice (in words)” value in series [1] (dilutions 1:500 to 1:2000) is recorded as “a certain inhibitory effect”. Also, the “Inhibition rate of bacterial growth (%)” value in series [1] (multiple for dilution 500) is recorded as 41%; in series [1] (multiple for dilution 1000), 32%; in series [1] (multiple for dilution 1500), 30%; in series [1] (multiple for dilution 2000), 23%. Moreover, the “Bud length (mm)” value is listed as 21 mm in series [2] (multiple for dilution 1500) and 26 mm in series [2] (multiple for dilution 2000). The “Germination rate of seed (%)” value came to 55% in series [2] (multiple for dilution 1500) and 56% in series [2] (multiple for dilution 2000). Also, the results for the “Root length (mm)” value in series [2] (multiple for dilution 1500) and in series [2] (multiple for dilution 2000) were 20 mm and 28 mm, respectively.

These data come from patent US20240215587A1 (priority 2020, published 2024).
